From the NIST ThermoML archive (doi:10.1021/je700322p)

Settings: Liquid

CCO [ethanol]
Settings | vapor or sublimation pressure [kPa]
321 K | 26.41
324 K | 30.53
327 K | 35.19
330 K | 40.44
333 K | 46.34
336 K | 52.96
339 K | 60.35
342 K | 68.6
345 K | 77.77
348 K | 87.96
351 K | 99.24
354 K | 111.7
357 K | 125.44
359 K | 135.37

CCOC(C)=O [ethyl acetate]
Settings | vapor or sublimation pressure [kPa]
310 K | 21.72
313 K | 24.78
316 K | 28.18
319 K | 31.95
322 K | 36.12
325 K | 40.73
328 K | 45.8
331 K | 51.36
334 K | 57.46
337 K | 64.13
340 K | 71.4
343 K | 79.32
346 K | 87.93
349 K | 97.26
352 K | 107.36
355 K | 118.27
358 K | 130.03
359 K | 134.15
